Experimental data: patent US20230322715A1, “BROAD SPECTRUM ANTI-CANCER COMPOUNDS” (The Regents of the University of California, priority 2019, published 2023)
Entries after “also recorded” stand apart in the source; their conditions may differ. Where two headings read alike, the source gives them in different places. Values belong to the compound of their own block, whether it stands above or below them.

What was measured:
[1] = test system: B16 melanoma tumors; experiment: B16 melanoma mouse model, GVAX/anti-PD-1 immunotherapy with ALKBH5 inhibitor; assay type: in vivo; settings: combined with PD-1 Ab and GVAX, vs control
Method: Animal studies and procedures were approved by the UCSD Institutional Animal Care and use Committee. Female C57BL/6J wild-type mice were obtained from The Jackson Laboratory and housed in the UCSD specific-pathogen free facility. 86.129S2-Tcratm1Mcrn/J (Tcra+) mice, which are CDC and CDB· T cell deficient, were obtained from The Jackson Laboratory and bred on-site. For the standard protocol, mice (aged 9-12 weeks at use) were injected subcutaneously (s.c.) with 5×10^5 B16 cells (NTC control, Fto-KO, or Alkbh5-KO, generated as described below) into the left flank on day 0, and then injected with 1 OE irradiated (100 GY) BIG-GM CSF cells (GVAX) into the opposite flank on days 1 and 4 to elicit an anti-tumor immune response. Mice were then injected intraperitoneally (i p.) with 10 mg/kg (−200 pgimouse) of rat monoclonal anti-mouse RD-I Ab (Bio X Cell, clone 29F. IA 12) on the days as indicated on the figures. For PD-1 Ab treatment alone, mice were implanted with B16 cells and treated with antibody on day 6, 9 and 12. For the Treg depletion experiments, mice were injected as described above and were additionally injected i.p. vittl rat anti-mouse CD25 Ab (Bio X Cell, clone 7D4) on day 11. Tumors were measured every 3 days beginning on day 7. […]

[2] = elogD / log D determination; settings: Table 700 compounds
[3] = target: T1, ALKBH5 (Homo sapiens (Human), UniProt Q6P6C2); experiment: Michaelis-Menten kinetics against ALKBH5; assay type: biochemical
[4] = target: T1, ALKBH5; experiment: Fluorescence enzymatic inhibition assay (m6A7-Broccoli RNA / DFHBI-1T) against ALKBH5; assay type: biochemical; settings: for IC50: read-out: Enzymatic IC50 ALKBH5
Method: (§1) Inhibitors were added in concentrations ranging from 0.008-40 μM; all inhibitors were dissolved in DMSO and added to a final concentration of 0.2% DMSO. […] After incubation at room temperature for 2 hours, the plates were left at 4° C. overnight (16 hours) to allow DFHBI-1T to bind to A7-Broccoli RNA. […] Sigmoidal dose-response curves were fitted in GraphPad Prism 6. All assays were performed in triplicate, with additional repetitions added as necessary.

[5] = test system: B16 cells; experiment: B16 cell proliferation assay with ALKBH5 inhibitor; assay type: cell-based, mouse; settings: 10, 30 and 50 μM ALKBH5 inhibitor vs DMSO
Method: B16 cells were plated at a density of 2000/well in 96-well plates in triplicate and incubated for 0, 2, 4, or 6 days before cell numbers were determined by manual counting or by using a CellTiter AQueous One Solution Cell Proliferation Assay kit (Promega).
Our results thus far indicate that loss f-m6A demethylase Alkbh5, in B16 melanoma cells, potentiates the efficacy of GVAX/anti-PD-1 therapy. To identify clinically relevant pharmacological inhibitors of Alkbh5, we have identified a specific inhibitor of ALKBH5, named ALK-04, by in silico screening of compounds using the X-ray crystal structure of ALKBH5 (PDB ID code 4NRO) and by performing structure-activity relationship studies on a library of synthesized compounds. […] Next, we compared tumor growth of control and inhibitor-treated mice during immunotherapy.

[6] = target: T2, FTO (Homo sapiens (Human), UniProt Q9C0B1); experiment: Fluorescence enzymatic inhibition assay (m6A7-Broccoli RNA / DFHBI-1T) against FTO; assay type: biochemical; settings: for IC50: read-out: Enzymatic IC50 FTO; for selectivity between FTO and ALKBH5: comparison of enzymatic IC50 values
Method: In order to determine their efficacy as FTO inhibitors, the compounds were screened by a fluorescence enzymatic inhibition assay developed previously by the Jaffrey lab.^44 Briefly, a nonfluorescent methylated RNA substrate termed “m6A7-Broccoli” is incubated with FTO in the presence of 2-oxoglutarate (300 μM), (NH4)2Fe(SO4)2·6H2O (300 μM), and L-ascorbate (2 mM) for 2 hours at room temperature in reaction buffer (50 mM NaHEPES, pH 6).
as §1

[7] = test system: MONOMAC6 and NB4 cells; settings: Huang et. al; cited from earlier work
[8] = target: T1, ALKBH5; settings: reported from Huang et. al 2019; read-out: Enzymatic IC50 ALKBH5; cited from earlier work
[9] = test system: GBM-GSC-23 glioblastoma stem cells; experiment: Neurosphere (tumorosphere) formation assay, GBM-GSC-23; assay type: cell-based, human; settings: GSC-23, 20 μM, 2 days
[10] = target: T2, FTO; experiment: ELISA-based FTO inhibition assay (orthogonal control); assay type: biochemical; settings: biotinylated m6A-RNA, 0-40 μM inhibitor; read-out: IC50 against FTO by ELISA assay
Method: The reaction mixture was then incubated with neutravidin coated 96-well plates overnight at 4° C., washed and blocked, incubated with m^6 A-specific antibody for 1 hour at room temperature, washed and blocked, and incubated with horseradish peroxidase-conjugated secondary antibody for 1 hour at room temperature. After extensive washing, the wells were treated with 3,3′,5,5′-tetramethylbenzidine (TMB) for 30 minutes at room temperature and the absorbance was measured at 390 nm. Absorbance was normalized to control wells for each concentration of inhibitor without cofactor 2-oxoglutarate to control for non-specific antibody binding, and the data were fit to a sigmoidal dose-response curve in GraphPad Prism 6.
The reaction mixture was then incubated with neutravidin coated 96-well plates (Pierce) overnight at 4° C., washed and blocked, incubated with m6A -specific primary antibody (Abcam ab151230, 1:400 dilution) for 1 hour at room temperature, washed and blocked (phosphate buffer saline with 0.1% tween-20 (PBST); blocked in 5% of non-fat milk in PBST buffer), and incubated with horseradish peroxidase-conjugated secondary antibody (Sigma-Aldrich, A6154, 1:5000 dilution) for 1 hour at room temperature. […]

[11] = test system: GBM-6 glioblastoma stem cells; experiment: Neurosphere (tumorosphere) formation assay, GBM-6; assay type: cell-based, human; settings: GBM-6, 20 μM, 2 days
[12] = test system: human neural stem cells (hNSC); experiment: Neurosphere formation assay, healthy neural stem cells; assay type: cell-based; settings: 20 μM, 2 days
[13] = test system: m6A mRNA levels in TS576 cells; experiment: m6A dot blot assay on poly(A)+ mRNA; assay type: cell-based, human; settings: TS576 poly(A)+ mRNA, 2, 10, 50 ng, vs DMSO or shControl
Method: Next, we sought to determine if FTO-04 was able to alter m6A levels in purified mRNA from GSCs by m6A dot blot assay. TS576 cells were treated with 2, 10, and 50 ng shControl or shFTO to establish the relative change in m6A mRNA levels due to FTO knockdown. […] TS576 cells were then treated with 2, 10, and 50 ng of either DMSO or FTO-04 (FIG. 4-33B).
Polyadenylated mRNA were isolated from TS576 cells treated with either DMSO, FTO-04 (30 μM), and control (shControl) or FTO lentivirus (shFTO) knockdown samples by using Magnetic mRNA Isolation Kit (New England Biolabs, S1550S). Isolated mRNA was quantified, serially diluted and denatured at 95° C. for 3 min, then chilled on ice to prevent reformation of secondary structure of mRNA. Denatured mRNA samples were spotted on an Amersham Hybond-N^+ membrane (GE Healthcare, RPN3050B) and cross-linked to the membrane with UV radiation. After crosslinking the membrane was washed with phosphate buffer saline with 0.1% tween-20 (PBST) and blocked in 5% of non-fat milk in PBST buffer, and then incubated with anti-m^6 A antibody (1:1000; abcam) overnight at 4° C. The membrane was then washed as before and incubated in HRP-conjugated secondary antibodies for 1 h at room temperature. The membrane was then developed with Thermo ECL SuperSignal West Femto Maximum Sensitivity Substrate (Thermo Fisher Scientific).

[14] = test system: TS576 glioblastoma stem cells; experiment: Neurosphere (tumorosphere) formation assay, TS576; assay type: cell-based, human; settings: 2 days
Method: To understand the effects of our FTO inhibitors on the self-renewal properties of GSCs, tumorospheres cultured from the patient-derived GSC line TS576 were treated with 30 μM of FTO-04, FTO-10, FTO-11, or FTO-12 (FIG. 4-3AB; cell line gifted from the Furnari lab)^0.45, 46 The GSCs were cultured in sphere-forming assays for 24 hours, then treated with either inhibitors or DMSO control for 2 days. The size of the tumorospheres was calculated using ImageJ.
Early passaged GSCs were used to understand the efficacy of ALK-04 on the self-renewal capacity of GSCs by tumorsphere-formation assay as described earlier^10, 11. In brief, GSCs were seeded at 4×10^4 cells in 24 well plate and cultured for 3 days followed by treatment with ALK-04 inhibitors at 20 μM daily for 3 days. After 3 days of treatment the images of the tumorospheres were imaged with phase contrast microscope and size was measured with Image J, to understand the effects of drugs on the self-renewal of GSCs on sphere formation. This process was also repeated for healthy neural stem cells (hNSCs) treated daily with 20 μM ALK-04 for three days to assess the therapeutic ratio.

[15] = target: T2, FTO; experiment: Steady-state (Michaelis-Menten) inhibition kinetics of FTO; assay type: biochemical; settings: velocity and double reciprocal plots, 0-40 μM inhibitor, substrate 0-10 μM
[16] = TS576, 30 μM inhibitor, vs vehicle control
[17] = m6A7-Broccoli fluorescence assay, 0.250 μM ALKBH5
[18] = m6A7-Broccoli fluorescence assay, 0.250 μM FTO, inhibitor up to 40 μM, triplicate

T2 sequence (Q9C0B1 whole entry): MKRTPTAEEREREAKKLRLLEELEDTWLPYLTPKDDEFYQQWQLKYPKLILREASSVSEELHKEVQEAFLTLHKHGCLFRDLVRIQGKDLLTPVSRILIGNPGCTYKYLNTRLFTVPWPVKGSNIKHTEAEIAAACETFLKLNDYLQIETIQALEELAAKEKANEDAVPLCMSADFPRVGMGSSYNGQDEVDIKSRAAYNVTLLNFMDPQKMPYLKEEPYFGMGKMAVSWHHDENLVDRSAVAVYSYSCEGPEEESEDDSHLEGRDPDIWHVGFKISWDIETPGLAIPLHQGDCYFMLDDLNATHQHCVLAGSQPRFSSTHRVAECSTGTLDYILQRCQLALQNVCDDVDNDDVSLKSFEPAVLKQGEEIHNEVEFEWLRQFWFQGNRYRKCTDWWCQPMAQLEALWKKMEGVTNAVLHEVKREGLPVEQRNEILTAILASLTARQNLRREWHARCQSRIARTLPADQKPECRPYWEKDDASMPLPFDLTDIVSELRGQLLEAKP
T1 sequence (Q6P6C2 whole entry): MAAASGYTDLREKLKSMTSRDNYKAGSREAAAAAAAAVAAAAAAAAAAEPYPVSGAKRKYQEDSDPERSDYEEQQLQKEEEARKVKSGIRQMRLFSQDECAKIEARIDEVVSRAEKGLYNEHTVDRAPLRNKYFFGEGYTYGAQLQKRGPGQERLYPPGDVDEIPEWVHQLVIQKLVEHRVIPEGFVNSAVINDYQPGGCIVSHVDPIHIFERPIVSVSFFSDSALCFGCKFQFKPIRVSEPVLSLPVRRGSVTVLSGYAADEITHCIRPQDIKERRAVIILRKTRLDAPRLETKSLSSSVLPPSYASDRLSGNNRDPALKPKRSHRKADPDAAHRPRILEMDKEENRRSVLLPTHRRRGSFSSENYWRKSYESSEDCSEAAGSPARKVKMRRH

elogD [2]: 0.29
mechanism of inhibition of ALKBH5 [3]: competitive inhibitor
IC50 ([4]; Table 700 compounds): 0.9 ± 0.7 µM
IC50 ([6]; Table 700 compounds): > 40 µM
Compound: CC(C)(C)OC(=O)N1CSC[C@@H]1CN [ALK-04]
B16 tumor growth during immunotherapy [1]: significantly reduced tumor growth
B16 cell proliferation [5]: not significantly affected

Compound: Cc1noc(C)c1-c1cc(Cl)c(Nc2ccccc2C(=O)NO)c(Cl)c1 [FB23-2]
cellular concentration relative to FB23 (fold) [7]: 3-10
IC50 [8]: > 40 µM

Compound: Cc1noc(C)c1-c1cc(Cl)c(Nc2ccccc2C(=O)O)c(Cl)c1 [FB23]
IC50 [8]: > 40 µM

Compound: COc1ncc(-c2ccc3nc(N)sc3c2)cn1 [FTO-04]
size of tumorospheres [9]: significantly decrease the size of tumorospheres
IC50 [10]: 2.79 ± 1.3 µM
size of tumorospheres [11]: significantly decrease the size of tumorospheres
neurosphere size / formation [12]: without impairing hNSC neurosphere growth; also recorded: no alteration in neurosphere size; also recorded: without significantly altering hNSC neurosphere formation
m6A mRNA levels (dot blot) [13]: increase m6A mRNA levels significantly; also recorded: increases m6A mRNA levels
size of tumorospheres ([14]; TS576, 20 μM): significantly decrease the size of tumorospheres
size of tumorospheres [14, 16]: significant reduction in size of the tumorospheres
mechanism of inhibition of FTO [15]: competitive inhibitor; also recorded: competitive mechanism of inhibition
potency against FTO relative to MA (fold) ([6]; IC50 compared with MA (12.5)): approximately 4

melting point: 230 °C
IC50 [4, 17]: 36.1 µM
IC50 [6, 18]: 48.1 µM
Compound: Nc1ncc(-c2ccc3cc(O)ccc3c2)cn1 [FTO-10, 6-(2-aminopyrimidin-5-yl)naphthalen-2-ol]
size of tumorospheres [14, 16]: significant reduction in size of the tumorospheres
selectivity between FTO and ALKBH5 [6]: equivalent inhibitors towards both demethylases

melting point: 230 °C
IC50 [4, 17]: 19.5 µM
IC50 [6, 18]: 11.3 µM
Compound: COc1ncc(-c2ccc3nc(C)ccc3c2)cn1 [FTO-11, 6-(2-methoxypyrimidin-5-yl)-2-methylquinoline]
size of tumorospheres [14, 16]: significant reduction in size of the tumorospheres
selectivity between FTO and ALKBH5 [6]: equivalent inhibitors towards both demethylases

Compound: COc1ccc2cc(-c3cnc(N)nc3)ccc2c1 [FTO-12, 5-(6-methoxynaphthalen-2-yl)pyrimidin-2-amine]
melting point: 230 °C
inhibition of ALKBH5 at the highest concentration measured ([4]; highest concentration measured): no measurable inhibition
IC50 [4, 17]: > 40 µM
size of tumorospheres [14, 16]: significant reduction in size of the tumorospheres
selectivity between FTO and ALKBH5 [6]: five-fold or higher
IC50 [6, 18]: 18.3 ± 1.7 µM
